The compounds below were run against B-Raf (V600E)-kinase (Homo sapiens (Human), UniProt P15056, V600E) (assay: Kinase test B-RAF (V600E)). Details: B-RAF (V600E) kinase test, 250 μM ATP.
Format: biochemical
Method in brief: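 B-Raf (V600E) (0.5 ng) preincubated with compound 24 h at RT (5% DMSO), then reacted 60 min at RT with 250 μM ATP and biotinylated MEK1 as substrate. Phospho-MEK (Ser217/221) captured on streptavidin and detected by europium time-resolved fluorescence; IC50 from dose-response curves.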

Sequence of B-Raf (V600E)-kinase (P15056 whole entry V600E): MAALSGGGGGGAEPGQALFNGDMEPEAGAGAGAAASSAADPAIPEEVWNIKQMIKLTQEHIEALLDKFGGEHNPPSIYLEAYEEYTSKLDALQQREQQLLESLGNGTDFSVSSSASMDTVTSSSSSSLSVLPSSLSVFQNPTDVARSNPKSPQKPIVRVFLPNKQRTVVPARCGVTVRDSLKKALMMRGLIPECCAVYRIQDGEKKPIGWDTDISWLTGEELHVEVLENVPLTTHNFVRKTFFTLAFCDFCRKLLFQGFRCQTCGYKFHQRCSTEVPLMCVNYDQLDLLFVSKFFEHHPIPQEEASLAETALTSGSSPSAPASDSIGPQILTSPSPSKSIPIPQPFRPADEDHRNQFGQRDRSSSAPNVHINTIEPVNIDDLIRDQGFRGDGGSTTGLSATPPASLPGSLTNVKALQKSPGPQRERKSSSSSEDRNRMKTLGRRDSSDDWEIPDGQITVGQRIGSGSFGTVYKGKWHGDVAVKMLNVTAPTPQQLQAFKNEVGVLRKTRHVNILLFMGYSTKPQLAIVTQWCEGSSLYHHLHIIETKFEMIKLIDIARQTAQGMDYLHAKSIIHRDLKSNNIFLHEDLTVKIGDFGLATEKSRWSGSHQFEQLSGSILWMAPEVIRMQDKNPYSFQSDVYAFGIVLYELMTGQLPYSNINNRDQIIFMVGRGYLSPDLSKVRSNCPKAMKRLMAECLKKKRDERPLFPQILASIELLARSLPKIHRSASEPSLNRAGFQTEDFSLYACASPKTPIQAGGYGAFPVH

IC50	SMILES
25 nM	COCCN1CCN(c2ncc3ncnc(Nc4cc(C(=O)Nc5cc(N6CCN(C)CC6)c(F)c(C(F)(F)F)c5)ccc4C)c3n2)CC1 [III-501]
8 nM	COCCN1CCN(c2ncc3ncnc(Nc4cc(C(=O)Nc5cc(-n6cnc(C)c6)cc(C(F)(F)F)c5)ccc4C)c3n2)CC1 [III-502]
1 nM	Cc1ccc(C(=O)Nc2cc(N3CCN(C)CC3)c(F)c(C(F)(F)F)c2)cc1Nc1ncnc2cnc(N3CCOCC3)nc12 [III-503]
2 nM	Cc1ccc(C(=O)Nc2cc(C(C)(C)C)on2)cc1Nc1ncnc2cnc(N3CCN(C)CC3)nc12 [III-504]
49 nM	COCCN1CCN(c2ncc3ncnc(Nc4cc(C(=O)Nc5cc(C(C)(C)C)cc(NS(C)(=O)=O)c5OC)ccc4C)c3n2)CC1 [III-505]
4 nM	Cc1ccc(C(=O)Nc2cc(N3CCN(C)CC3)c(F)c(C(F)(F)F)c2)cc1Nc1ncnc2cnc(NC3CCOC3)nc12 (centres unmarked) [III-506]
1 nM	Cc1cn(-c2cc(NC(=O)c3ccc(C)c(Nc4ncnc5cnc(NC6CCOC6)nc45)c3)cc(C(F)(F)F)c2)cn1 (centres unmarked) [III-507]
3 nM	Cc1ccc(C(=O)Nc2cc(C(C)(C)C)n[nH]2)cc1Nc1ncnc2cnc(N3CC[C@H](F)C3)nc12 [III-508]
5 nM	Cc1ccc(C(=O)Nc2cc(N3CCN(C)CC3)c(F)c(C(F)(F)F)c2)cc1Nc1ncnc2cnc(N3CCN(CC4CCN(C)CC4)CC3)nc12 [III-509]
< 1 nM	Cc1ccc(C(=O)Nc2cc(C(F)(F)F)ccn2)cc1Nc1ncnc2cnc(N3CCN(CC4CCN(C)CC4)CC3)nc12 [III-510]
4 nM	Cc1ccc(C(=O)Nc2cc(N3CCN(C)CC3)c(F)c(C(F)(F)F)c2)cc1Nc1ncnc2cnc(N3CC[C@H](F)C3)nc12 [III-511]
2 nM	Cc1ccc(C(=O)Nc2cc(C(C)(C)C)n[nH]2)cc1Nc1ncnc2cnc(NCc3ccccc3)nc12 [III-512]
1 nM	Cc1ccc(C(=O)Nc2cc(C(C)(C)C)nn2C)cc1Nc1ncnc2cnc(N3CCOCC3)nc12 [III-513]
1 nM	Cc1ccc(C(=O)Nc2cc(N3CCCN(C)CC3)cc(C(F)(F)F)c2)cc1Nc1ncnc2cnc(N(C)CCF)nc12 [III-514]
< 1 nM	Cc1ccc(C(=O)Nc2cc(C(C)(C)C)n[nH]2)cc1Nc1ncnc2cnc(N3CCOCC3)nc12 [III-515]
< 1 nM	Cc1ccc(C(=O)Nc2cc(C(C)(C)C)on2)cc1Nc1ncnc2cnc(N3CCOCC3)nc12 [III-516]
3 nM	COCCN1CCN(c2ncc3ncnc(Nc4cc(C(=O)Nc5cc(C(C)(C)C)on5)ccc4C)c3n2)CC1 [III-517]
2 nM	Cc1ccc(C(=O)Nc2cc(N3CCN(C)CC3)cc(C(F)(F)F)c2)cc1Nc1ncnc2cnc(N(C)CCF)nc12 [III-518]
< 1 nM	Cc1ccc(C(=O)Nc2cc(C(F)(F)F)ccn2)cc1Nc1ncnc2cnc(NCC(C)C)nc12 [III-519]
2 nM	Cc1ccc(C(=O)Nc2cccc(C(C)(C)C#N)c2)cc1Nc1ncnc2cnc(NCC(C)C)nc12 [III-520]
2 nM	Cc1ccc(C(=O)Nc2cc(C(C)(C)C)on2)cc1Nc1ncnc2cnc(NCc3ccccc3)nc12 [III-521]
3 nM	Cc1ccc(C(=O)Nc2cc(C(F)(F)F)ccn2)cc1Nc1ncnc2cnc(NCc3ccccc3)nc12 [III-522]
1 nM	Cc1ccc(C(=O)Nc2cc(OCCN3CCCC3)cc(C(F)(F)F)c2)cc1Nc1ncnc2cnc(N3CCOCC3)nc12 [III-523]

IC50	SMILES
3 nM	Cc1ccc(C(=O)Nc2cc(N3C[C@@H](C)N[C@@H](C)C3)cc(C(F)(F)F)c2)cc1Nc1ncnc2cnc(N3CCOCC3)nc12 [III-524]
3 nM	Cc1ccc(C(=O)Nc2cc(N3CCOCC3)cc(C(F)(F)F)c2)cc1Nc1ncnc2cnc(N3CCOCC3)nc12 [III-525]
4 nM	Cc1ccc(C(=O)Nc2cc(N3CCN(CCO)CC3)cc(C(F)(F)F)c2)cc1Nc1ncnc2cnc(N3CCOCC3)nc12 [III-526]
< 1 nM	Cc1ccc(C(=O)Nc2cc(N3CCN[C@H](C)C3)cc(C(F)(F)F)c2)cc1Nc1ncnc2cnc(N3CCOCC3)nc12 [III-527]
2 nM	Cc1ccc(C(=O)Nc2cc(CN3CCCC3)c(Cl)c(C(F)(F)F)c2)cc1Nc1ncnc2cnc(N3CCOCC3)nc12 [III-528]
3 nM	Cc1ccc(C(=O)Nc2cc(OCCN3CCOCC3)cc(C(F)(F)F)c2)cc1Nc1ncnc2cnc(N3CCOCC3)nc12 [III-529]
582 nM	Cc1ccc(C(=O)Nc2cc(-n3ccnc3)cc(C(F)(F)F)c2)cc1Nc1ncnc2cnc(N3CCOCC3)nc12 [III-530]
13 nM	COCCN1CCN(c2ncc3ncnc(Nc4cc(C(=O)Nc5cc(C(F)(F)F)ccc5C#N)ccc4C)c3n2)CC1 [III-531]
6 nM	COCCN1CCN(c2ncc3ncnc(Nc4cc(C(=O)Nc5cc(C(F)(F)F)ccc5Cl)ccc4C)c3n2)CC1 [III-533]
106 nM	COCCN1CCN(c2ncc3ncnc(Nc4cc(C(=O)Nc5cc(C(F)(F)F)ccc5N5CCOCC5)ccc4C)c3n2)CC1 [III-534]
4 nM	COCCN1CCN(c2ncc3ncnc(Nc4cc(C(=O)Nc5cc(OC)cc(C(F)(F)F)c5)ccc4C)c3n2)CC1 [III-535]
1 nM	COCCN1CCN(c2ncc3ncnc(Nc4cc(C(=O)Nc5ccc(F)c(C(F)(F)F)c5)ccc4C)c3n2)CC1 [III-536]
12 nM	COCCN1CCN(c2ncc3ncnc(Nc4cc(C(=O)Nc5cc(C(F)(F)F)ccc5-n5ccnn5)ccc4C)c3n2)CC1 [III-537]
10 nM	COCCN1CCN(c2ncc3ncnc(Nc4cc(C(=O)Nc5cc(C(F)(F)F)ccc5-n5cccn5)ccc4C)c3n2)CC1 [III-538]
2 nM	COc1c(CN2CCCC2)cc(C(F)(F)F)cc1NC(=O)c1ccc(C)c(Nc2ncnc3cnc(N4CCOCC4)nc23)c1 [III-539]
5 nM	COc1c(CNC(C)C)cc(C(F)(F)F)cc1NC(=O)c1ccc(C)c(Nc2ncnc3cnc(N4CCOCC4)nc23)c1 [III-540]
15 nM	COc1c(CN2CCCC2)cc(C(F)(F)F)cc1NC(=O)c1ccc(C)c(Nc2ncnc3cnc(N4CC[C@H](F)C4)nc23)c1 [III-541]
12 nM	COc1c(CNC(C)C)cc(C(F)(F)F)cc1NC(=O)c1ccc(C)c(Nc2ncnc3cnc(N4CC[C@H](F)C4)nc23)c1 [III-542]
3 nM	COc1ccc(NC(=O)c2ccc(C)c(Nc3ncnc4cnc(N(C)CC5CCCO5)nc34)c2)cc1C(F)(F)F (centres unmarked) [III-543]
1 nM	COc1ccc(NC(=O)c2ccc(C)c(Nc3ncnc4cnc(NCC5CCCCO5)nc34)c2)cc1C(F)(F)F (centres unmarked) [III-544]
2 nM	COC[C@@H]1CCCN1c1ncc2ncnc(Nc3cc(C(=O)Nc4ccc(OC)c(C(F)(F)F)c4)ccc3C)c2n1 [III-545]
4 nM	COc1ccc(NC(=O)c2ccc(C)c(Nc3ncnc4cnc(N5CCC[C@H]5CO)nc34)c2)cc1C(F)(F)F [III-546]
< 1 nM	COc1ccc(NC(=O)c2ccc(C)c(Nc3ncnc4cnc(NCC(C)C)nc34)c2)cc1C(F)(F)F [III-547]

IC50	SMILES
3 nM	COc1ccc(NC(=O)c2ccc(C)c(Nc3ncnc4cnc(N(C)C5CCOC5)nc34)c2)cc1C(F)(F)F (centres unmarked) [III-548]
8 nM	COc1ccc(NC(=O)c2ccc(C)c(Nc3ncnc4cnc(-n5cnc(C)c5)nc34)c2)cc1C(F)(F)F [III-549]
4 nM	COc1ccc(NC(=O)c2ccc(C)c(Nc3ncnc4cnc(N5C[C@@H](C)O[C@@H](C)C5)nc34)c2)cc1C(F)(F)F [III-550]
1 nM	COc1ccc(NC(=O)c2ccc(C)c(Nc3ncnc4cnc(N5CCCOCC5)nc34)c2)cc1C(F)(F)F [III-551]
17 nM	COc1ccc(NC(=O)c2ccc(C)c(Nc3ncnc4cnc(N5CCN(CCN6CCOCC6)CC5)nc34)c2)cc1C(F)(F)F [III-552]
2 nM	COc1ccc(NC(=O)c2ccc(C)c(Nc3ncnc4cnc(N5CCN(CCCN6CCCC6)CC5)nc34)c2)cc1C(F)(F)F [III-553]
3 nM	COc1ccc(NC(=O)c2ccc(C)c(Nc3ncnc4cnc(N5CCN(CC6CCCN(C)C6)CC5)nc34)c2)cc1C(F)(F)F (centres unmarked) [III-554]
18 nM	COc1ccc(NC(=O)c2ccc(C)c(Nc3ncnc4cnc(N5CCN6CCCCC6C5)nc34)c2)cc1C(F)(F)F (centres unmarked) [III-555]
7 nM	COc1ccc(NC(=O)c2ccc(C)c(Nc3ncnc4cnc(N5CCC(N6CCCCC6)CC5)nc34)c2)cc1C(F)(F)F [III-556]
4 nM	COc1ccc(NC(=O)c2ccc(C)c(Nc3ncnc4cnc(N5CCN(C6CCN(C)CC6)CC5)nc34)c2)cc1C(F)(F)F [III-557]
23 nM	COc1ccc(NC(=O)c2ccc(C)c(Nc3ncnc4cnc(N5CCC(N6CCOCC6)CC5)nc34)c2)cc1C(F)(F)F [III-558]
14 nM	COc1ccc(NC(=O)c2ccc(C)c(Nc3ncnc4cnc(N5CCC(N6C[C@@H](C)O[C@@H](C)C6)CC5)nc34)c2)cc1C(F)(F)F [III-559]
7 nM	COc1ccc(NC(=O)c2ccc(C)c(Nc3ncnc4cnc(N5CCC(N6CCCC6)CC5)nc34)c2)cc1C(F)(F)F [III-560]
9 nM	CCN1CCN(c2ncc3ncnc(Nc4cc(C(=O)Nc5ccc(OC)c(C(F)(F)F)c5)ccc4C)c3n2)CC1 [III-561]
11 nM	COc1ncc2ncnc(Nc3cc(C(=O)Nc4cc(C(C)(C)C)nn4C)ccc3C)c2n1 [III-565]
2 nM	COc1ncc2ncnc(Nc3cc(C(=O)Nc4cc(N5CCN(C(C)C)CC5)cc(C(F)(F)F)c4)ccc3C)c2n1 [III-567]
1 nM	COc1ncc2ncnc(Nc3cc(C(=O)Nc4cccc(C(F)(F)F)c4)ccc3C)c2n1 [III-568]
2 nM	COc1ncc2ncnc(Nc3cc(C(=O)Nc4ccc(OC)c(C(F)(F)F)c4)ccc3C)c2n1 [III-569]
< 1 nM	COc1ncc2ncnc(Nc3cc(C(=O)Nc4cccc(C(C)(C)C)c4)ccc3C)c2n1 [III-570]
2 nM	COc1ncc2ncnc(Nc3cc(C(=O)Nc4cc(N(C)CCN(C)C)cc(C(F)(F)F)c4)ccc3C)c2n1 [III-571]
1 nM	COc1ncc2ncnc(Nc3cc(C(=O)Nc4cc(CN5CCCC5)cc(C(F)(F)F)c4)ccc3C)c2n1 [III-572]

SMILES	IC50
COCCN1CCN(c2ncc3ncnc(Nc4cc(C(=O)Nc5ccc(C#N)c(C(F)(F)F)c5)ccc4C)c3n2)CC1 [III-532]	2 nM
